Data reported in ChEMBL document CHEMBL1125888, “Inhibitors of cholesterol biosynthesis. 3. Tetrahydro-4-hydroxy-6-[2-(1H-pyrrol-1-yl)ethyl]-2H-pyran-2-one inhibitors of HMG-CoA reductase. 2. Effects of introducing substituents at positions three and four of the pyrrole nucleus” (J Med Chem, 1991).

Tests used:
[1] = target: T1, 3-hydroxy-3-methylglutaryl-coenzyme A reductase (Rattus norvegicus, UniProt P51639); test: Inhibition of HMG-CoA reductase activity in partially purified rat liver
T1 sequence (P51639 whole entry): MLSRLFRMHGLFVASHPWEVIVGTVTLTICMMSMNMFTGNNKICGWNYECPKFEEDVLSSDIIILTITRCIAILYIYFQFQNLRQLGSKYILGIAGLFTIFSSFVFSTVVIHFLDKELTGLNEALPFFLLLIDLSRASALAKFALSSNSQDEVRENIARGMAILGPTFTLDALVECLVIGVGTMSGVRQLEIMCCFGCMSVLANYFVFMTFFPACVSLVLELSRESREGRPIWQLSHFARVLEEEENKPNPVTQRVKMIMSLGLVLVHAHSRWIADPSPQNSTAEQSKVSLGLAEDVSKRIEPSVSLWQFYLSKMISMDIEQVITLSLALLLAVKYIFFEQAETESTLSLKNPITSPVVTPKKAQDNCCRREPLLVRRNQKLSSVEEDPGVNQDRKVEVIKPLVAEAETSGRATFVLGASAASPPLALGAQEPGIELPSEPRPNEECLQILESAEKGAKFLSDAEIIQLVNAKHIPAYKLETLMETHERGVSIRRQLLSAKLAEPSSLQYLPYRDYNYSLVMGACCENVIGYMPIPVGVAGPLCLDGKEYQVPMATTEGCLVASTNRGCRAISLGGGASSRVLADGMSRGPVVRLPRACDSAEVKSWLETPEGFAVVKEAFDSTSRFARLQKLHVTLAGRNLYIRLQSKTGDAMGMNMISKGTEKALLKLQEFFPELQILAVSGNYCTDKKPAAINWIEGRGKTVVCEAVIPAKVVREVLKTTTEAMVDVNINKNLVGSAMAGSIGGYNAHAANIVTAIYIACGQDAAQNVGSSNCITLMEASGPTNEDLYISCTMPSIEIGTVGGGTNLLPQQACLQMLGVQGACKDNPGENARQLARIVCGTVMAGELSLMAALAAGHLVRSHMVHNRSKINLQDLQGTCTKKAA

[2] = target: T2, 3-hydroxy-3-methylglutaryl-coenzyme A reductase (Rattus norvegicus) (UniProt P51639); test: Relative potency against HMG-CoA reductase activity in partially purified rat liver; assay type: functional
T2 sequence (whole entry): T1 sequence (P51639 whole entry)

Compound	IC50 [1] [nM]	Relative potency [2]
Cc1c(C)c(C(C)C)n(CC[C@@H]2C[C@@H](O)CC(=O)O2)c1-c1ccc(F)cc1	140	16
COC(=O)c1c(C(=O)OC)c(C(C)C)n(CC[C@@H]2C[C@@H](O)CC(=O)O2)c1-c1ccc(F)cc1	180	14.3
CCOC(=O)c1c(-c2ccccc2)c(-c2ccccc2)n(CC[C@@H]2C[C@@H](O)CC(=O)O2)c1C	4000	0.6
CC(C)c1c(C(=O)OCc2ccccc2)c(-c2ccccc2)c(-c2ccc(F)cc2)n1CC[C@@H]1C[C@@H](O)CC(=O)O1	40	24
CC(C)c1c(C(=O)Nc2ccccc2)c(-c2ccccc2)c(-c2ccc(F)cc2)n1CC[C@@H]1C[C@@H](O)CC(=O)O1 (stereo in doubt; (-)-33)	–	13.9
CC(C)c1c(C(=O)Nc2ccccc2)c(-c2ccccc2)c(-c2ccc(F)cc2)n1CC[C@@H]1C[C@@H](O)CC(=O)O1 (racemic) [ATORVASTATIN LACTONE]	25	–
CCOC(=O)c1c(-c2ccccc2)c(-c2ccc(F)cc2)n(CC[C@@H]2C[C@@H](O)CC(=O)O2)c1C(C)C	200	35.5
CCOC(=O)c1c(-c2ccc(C#N)cc2)c(-c2ccc(F)cc2)n(CC[C@@H]2C[C@@H](O)CC(=O)O2)c1C(C)C	280	16.2
CC[C@H](C)C(=O)O[C@H]1CCC=C2C=C[C@H](C)[C@H](CC[C@@H]3C[C@@H](O)CC(=O)O3)[C@H]21 [MEVASTATIN]	30	100
CC(C)c1c(C(=O)Nc2ccccc2)c(-c2ccccc2)c(-c2ccc(F)cc2)n1CC[C@@H]1C[C@@H](O)CC(=O)O1 (stereo in doubt; (+)-33) [ATORVASTATIN LACTONE]	7	–
CC(C)c1c(C(=O)Nc2ccccc2)c(-c2ccccc2)c(-c2ccc(F)cc2)n1CC[C@@H]1C[C@@H](O)CC(=O)O1 (stereo in doubt; (+)-33)	–	500
CC(C)c1c(Cl)c(Cl)c(-c2ccc(F)cc2)n1CC[C@@H]1C[C@@H](O)CC(=O)O1	28	78.6
CC(C)c1c(Br)c(Br)c(-c2ccc(F)cc2)n1CC[C@@H]1C[C@@H](O)CC(=O)O1	28	78.6
CC(C)c1ccc(-c2ccc(F)cc2)n1CC[C@@H]1C[C@@H](O)CC(=O)O1	–	10.9
CC(C)c1c(C(=O)Nc2ccccc2)c(-c2ccccc2)c(-c2ccc(F)cc2)n1CC[C@@H]1C[C@@H](O)CC(=O)O1 (racemic)	–	81.4
CCOC(=O)c1c(-c2ccccc2)c(-c2ccccc2)n(CC[C@@H]2C[C@@H](O)CC(=O)O2)c1CC	890	6.3
CCOC(=O)c1c(-c2ccccc2)c(-c2ccccc2)n(CC[C@@H]2C[C@@H](O)CC(=O)O2)c1C(C)C	170	23.5
CC(C)c1cc(C(=O)C(F)(F)F)c(-c2ccc(F)cc2)n1CC[C@@H]1C[C@@H](O)CC(=O)O1	800	8.8
CC(C)c1cc(-c2ccncc2)c(-c2ccc(F)cc2)n1CC[C@@H]1C[C@@H](O)CC(=O)O1	310	2.1
CC(C)c1cc(-c2ccccn2)c(-c2ccc(F)cc2)n1CC[C@@H]1C[C@@H](O)CC(=O)O1	46	76
CC(C)c1cc(-c2ccccc2)c(-c2ccc(F)cc2)n1CC[C@@H]1C[C@@H](O)CC(=O)O1	347	12.5
CC(C)c1c(-c2ccccc2)cc(-c2ccc(F)cc2)n1CC[C@@H]1C[C@@H](O)CC(=O)O1	120	36.3
CC(C)c1c(C(=O)Nc2ccccc2)c(-c2ccccc2)c(-c2ccc(F)cc2)n1CC[C@@H]1C[C@@H](O)CC(=O)O1 (stereo in doubt; (-)-33) [ATORVASTATIN LACTONE]	440	–
CCOC(=O)c1c(C(=O)OCC)c(C(C)C)n(CC[C@@H]2C[C@@H](O)CC(=O)O2)c1-c1ccc(F)cc1	350	2.8
CC(C)c1cc(-c2cccnc2)c(-c2ccc(F)cc2)n1CC[C@@H]1C[C@@H](O)CC(=O)O1	71	9.4
CCOC(=O)c1c(-c2ccccc2)c(C(C)C)n(CC[C@@H]2C[C@@H](O)CC(=O)O2)c1-c1ccc(F)cc1	50	100
